In patent publication US10238631B2, “Sesquiterpene derivatives and their use in inflammation or cancer treatment” (Academia Sinica, priority 2014, dated 2019):

Test system: MDA-MB-231 cells
Assay: Compound-drug combination assay with PTX
Format: cell-based, human
Details: 0-4 μM compound, 0-25 nM PTX
Description: Cell proliferation was measured by MTT assay. Isobologram analysis and Chou-Talalay method was used to determine the effects of compound drug combinations. The interaction of DETDs and PLX4032 or PTX was determined by the combination index (CI), and the CI plot was generated using CompuSyn software. The combined effects of two compounds can be categorized as follows: CI=1 indicates additive interaction, CI<1 indicates synergism, and CI>1 indicates antagonism.
To investigate whether or not DETD-35 and DETD-39 act synergistically with PTX against MDA-MB-231 cell activity, anti-proliferation assay using MTT reagent was performed to obtain the IC60 value of each compound. […] Based on the IC60 values, DETD-35 or DETD-39 ranging from 0 to 4 μM and PIX from 0 to 25 nM were used for compound-drug combination study. Classic isobologram analysis and Chou-Talalay method were conducted to investigate the synergistic effect of compound and drug. Combination index (CI) was calculated with CalcuSyn software (Version 2.0, Biosoft) and expressed as CI vs. Fa (fraction affected). CI<1 indicates synergy; CI=1 indicates additive effect; and CI>1 indicates antagonism.

Question: For `C=C1C(=O)O[C@H]2CC3=C[C@@H](C/C(C)=C/[C@@H](OC(=O)Cc4cccc5ccccc45)[C@H]12)OC3=O` [DETD-35], which “combination effect with PTX (isobologram, combination index)” value is on record?
Answer: Its value is “acted synergistically”.
